Data on four molecules can be found in US20090029995A1, “HETERO BIARYL DERIVATIVES AS MATRIX METALLOPROTEINASE INHIBITORS” (WARNER-LAMBERT COMPANY, priority 2002, published 2009).

One data set addresses T1, MMP-17 catalytic domain (Homo sapiens, UniProt Q9ULZ9).
T1 construct: MMP-12 catalytic domain, MMP-14 catalytic domain, and MMP-17 catalytic domain
T1 sequence (Q9ULZ9 126-295 limits assumed): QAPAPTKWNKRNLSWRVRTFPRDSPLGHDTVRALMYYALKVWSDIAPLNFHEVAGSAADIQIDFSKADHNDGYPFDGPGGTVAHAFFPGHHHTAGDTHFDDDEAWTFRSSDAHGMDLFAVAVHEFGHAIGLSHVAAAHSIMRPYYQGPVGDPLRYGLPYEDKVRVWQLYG
Kind of data set: MMP-17 catalytic domain inhibition (thiopeptolide substrate hydrolysis). The data set is classed as biochemical. To be noted: read-out: MMP-17CD IC50. From the text: (§1) Certain compounds of Formula I have been assayed with MMP-1 full-length, MMP-3 catalytic domain, MMP-7 full-length, MMP-8 full-length, MMP-9 full-length, MMP-12 catalytic domain, MMP-14 catalytic domain, and MMP-17 catalytic domain.
(§2) The assays measure the amount by which a test compound reduces the hydrolysis of a thiopeptolide substrate catalyzed by a matrix metalloproteinase enzyme. Such assays are described in detail by Ye et al., in Biochemistry, 1992; 31(45): 11231-11235, which is incorporated herein by reference. One such assay is described below in Biological Method 1.
(§3) Thiopeptolide substrates show virtually no decomposition or hydrolysis at or below neutral pH in the absence of a matrix metalloproteinase enzyme. A typical thiopeptolide substrate commonly utilized for assays is Ac-Pro-Leu-Gly-thioester-Leu-Leu-Gly-OEt. A 100 μL assay mixture will contain 50 mM of N-2-hydroxyethylpiperazine-N′-2-ethanesulfonic acid buffer (“HEPES,” pH 7.0), 10 mM CaCl2, 100 μM thiopeptolide substrate, and 1 mM 5,5′-dithio-bis-(2-nitro-benzoic acid) (DTNB). The thiopeptolide substrate concentration may be varied, for example from 10 to 800 μM to obtain Km and Kcat values. The change in absorbance at 405 nm is monitored on a Thermo Max microplate reader (molecular Devices, Menlo Park, Calif.) at room temperature (22° C.). The calculation of the amount of hydrolysis of the thiopeptolide substrate is based on E412=13600 M^−1 cm^−1 for the DTNB-derived product 3-carboxy-4-nitrothiophenoxide. Assays are carried out with and without matrix metalloproteinase inhibitor compounds, and the amount of hydrolysis is compared for a determination of inhibitory activity of the test compounds.
(§4) Test compounds were evaluated at various concentrations in order to determine their respective IC50 values, the micromolar concentration of compound required to cause a 50% inhibition of catalytic activity of the respective enzyme.

The target of another data set is T2, MMP-8 full-length (Homo sapiens, UniProt P22894).
T2 construct: MMP-7 full-length, MMP-8 full-length, MMP-9 full-length
T2 sequence (P22894 101-467): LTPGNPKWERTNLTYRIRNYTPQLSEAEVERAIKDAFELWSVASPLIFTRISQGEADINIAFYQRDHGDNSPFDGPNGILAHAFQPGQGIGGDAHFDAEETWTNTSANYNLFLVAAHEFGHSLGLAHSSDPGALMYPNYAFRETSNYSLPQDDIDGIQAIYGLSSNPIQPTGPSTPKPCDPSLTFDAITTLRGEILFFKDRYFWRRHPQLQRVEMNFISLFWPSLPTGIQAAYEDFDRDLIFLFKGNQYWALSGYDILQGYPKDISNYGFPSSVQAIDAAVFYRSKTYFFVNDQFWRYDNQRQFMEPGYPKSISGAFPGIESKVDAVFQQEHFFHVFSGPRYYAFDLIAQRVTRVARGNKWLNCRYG
Kind of data set: MMP-8 full-length inhibition (thiopeptolide substrate hydrolysis). In kind it is biochemical. Conditions: read-out: MMP-8FL IC50.
Source text: as §1, §2, §3, §4

For a further data set, the target named is T3, MMP-1 full-length (Homo sapiens, UniProt P03956).
T3 sequence (P03956 100-469): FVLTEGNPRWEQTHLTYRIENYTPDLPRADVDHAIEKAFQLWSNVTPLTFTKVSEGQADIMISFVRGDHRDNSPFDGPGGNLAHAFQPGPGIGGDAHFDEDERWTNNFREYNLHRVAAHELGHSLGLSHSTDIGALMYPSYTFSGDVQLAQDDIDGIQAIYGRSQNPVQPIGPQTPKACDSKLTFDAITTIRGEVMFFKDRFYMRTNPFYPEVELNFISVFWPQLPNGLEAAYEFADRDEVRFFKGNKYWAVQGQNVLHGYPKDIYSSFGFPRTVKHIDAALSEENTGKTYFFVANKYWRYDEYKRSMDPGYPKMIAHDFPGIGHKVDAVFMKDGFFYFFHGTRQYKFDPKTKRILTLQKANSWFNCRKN
Kind of data set: MMP-1 full-length inhibition (thiopeptolide substrate hydrolysis). Conditions: read-out: MMP-1FL IC50. The data set is classed as biochemical.
Source text: as §1, §2
(§5) Thiopeptolide substrates show virtually no decomposition or hydrolysis at or below neutral pH in the absence of a matrix metalloproteinase enzyme. A typical thiopeptolide substrate commonly utilized for assays is Ac-Pro-Leu-Gly-thioester-Leu-Leu-Gly-OEt. A 100 μL assay mixture will contain 50 mM of N-2-hydroxyethylpiperazine-N′-2-ethanesulfonic acid buffer (“HEPES,” pH 7.0), 10 mM CaCl2, 100 μM thiopeptolide substrate, and 1 mM 5,5′-dithio-bis-(2-nitro-benzoic acid) (DTNB). The thiopeptolide substrate concentration may be varied, for example from 10 to 800 μM to obtain Km and Kcat values. The change in absorbance at 405 nm is monitored on a Thermo Max microplate reader (molecular Devices, Menlo Park, Calif.) at room temperature (22° C.). The calculation of the amount of hydrolysis of the thiopeptolide substrate is based on E412=13600 M^−1 cm^−1 for the DTNB-derived product 3-carboxy-4-nitrothiophenoxide. […]
(§6) Some representative compounds of Formula I have been evaluated for their ability to inhibit MMP-13. Inhibitor activity versus other MMPs with the compounds may be determined using, for example, MMP-1FL, which refers to full length interstitial collagenase; MMP-2FL, which refers to full length Gelatinase A; MMP-3CD, which refers to the catalytic domain of stromelysin; MMP-7FL, which refers to full length matrilysin; MMP-9FL, which refers to full length Gelatinase B; MMP-13CD, which refers to the catalytic domain of collagenase 3; and MMP-14CD, which refers to the catalytic domain of MMP-14. […]

The target in the next data set is MMP-9 full-length (Homo sapiens, UniProt P14780). Kind of data set: MMP-9 full-length inhibition (thiopeptolide substrate hydrolysis). In kind it is biochemical. Conditions: read-out: MMP-9FL IC50.
MMP-9 full-length, sequence (P14780 94-707): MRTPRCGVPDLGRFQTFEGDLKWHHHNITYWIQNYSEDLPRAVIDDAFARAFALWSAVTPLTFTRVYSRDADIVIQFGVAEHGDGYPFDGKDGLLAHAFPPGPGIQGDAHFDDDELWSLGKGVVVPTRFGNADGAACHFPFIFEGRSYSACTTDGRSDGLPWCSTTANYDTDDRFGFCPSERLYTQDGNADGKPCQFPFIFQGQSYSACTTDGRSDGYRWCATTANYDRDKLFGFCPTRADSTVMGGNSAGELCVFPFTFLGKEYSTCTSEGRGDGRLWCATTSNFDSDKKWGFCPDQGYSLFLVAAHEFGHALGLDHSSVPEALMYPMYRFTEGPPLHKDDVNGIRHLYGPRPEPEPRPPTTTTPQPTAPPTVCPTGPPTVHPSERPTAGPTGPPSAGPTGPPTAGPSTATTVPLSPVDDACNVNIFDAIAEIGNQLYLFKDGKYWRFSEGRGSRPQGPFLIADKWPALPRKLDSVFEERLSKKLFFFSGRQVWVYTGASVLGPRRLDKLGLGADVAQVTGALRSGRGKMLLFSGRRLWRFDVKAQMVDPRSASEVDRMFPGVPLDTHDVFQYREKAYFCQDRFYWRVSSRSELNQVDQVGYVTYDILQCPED
Source text: as §1, §2, §3, §4
(§7) The test described above for the inhibition of MMP-13 may also be adapted and used to determine the ability of the compounds of Formula I to inhibit the matrix metalloproteases MMP-1, MMP-2, MMP-3, MMP-7, MMP-9, MMP-12 and MMP-14.
as §6

A further data set has as its target MMP-14 catalytic domain (Homo sapiens, UniProt P50281). The data set is described as follows: MMP-14 catalytic domain inhibition (thiopeptolide substrate hydrolysis). The data set is classed as biochemical. To be noted: read-out: MMP-14CD IC50.
Source text: as §1, §2, §3, §4, §7, §6

In another data set the target is MMP-3 catalytic domain (Homo sapiens, UniProt P08254). The data set is described as follows: MMP-3 catalytic domain inhibition (thiopeptolide substrate hydrolysis, MES buffer pH 6.0). In kind it is biochemical. To be noted: read-out: MMP-3CD IC50.
MMP-3 catalytic domain, sequence (P08254 100-272 limits assumed): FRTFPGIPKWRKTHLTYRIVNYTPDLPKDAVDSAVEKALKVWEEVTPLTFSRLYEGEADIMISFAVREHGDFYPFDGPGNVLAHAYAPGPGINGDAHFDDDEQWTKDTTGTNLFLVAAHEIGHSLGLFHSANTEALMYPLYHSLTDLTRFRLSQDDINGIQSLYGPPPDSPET
Source text: as §1, §2, §3, §4
It should be appreciated that the assay buffer used with MMP-3CD was 50 mM N-morpholinoethane sulfonate (“MES”) at pH 6.0 rather than the HEPES buffer at pH 7.0 described above. […]
as §6

Another data set concerns the target T4, MMP-13 catalytic domain (Homo sapiens, UniProt P45452).
T4 construct: use the catalytic domain of the MMP-13 enzyme, namely matrix metalloproteinase-13 catalytic domain (“MMP-13CD”)
The data set is described as follows: MMP-13 catalytic domain inhibition (thiopeptolide substrate hydrolysis). In kind it is biochemical. Conditions: read-out: MMP-13CD IC50. From the text: The assays measure the amount by which a test compound reduces the hydrolysis of a thiopeptolide substrate catalyzed by a matrix metalloproteinase enzyme. […] One such assay is described below in Biological Method 1.
Some of the particular methods described below use the catalytic domain of the MMP-13 enzyme, namely matrix metalloproteinase-13 catalytic domain (“MMP-13CD”), rather than the corresponding full-length enzyme, MMP-13.
Thiopeptolide substrates show virtually no decomposition or hydrolysis at or below neutral pH in the absence of a matrix metalloproteinase enzyme. A typical thiopeptolide substrate commonly utilized for assays is Ac-Pro-Leu-Gly-thioester-Leu-Leu-Gly-OEt. […] Assays are carried out with and without matrix metalloproteinase inhibitor compounds, and the amount of hydrolysis is compared for a determination of inhibitory activity of the test compounds.

For a further data set, the target named is T5, MMP-7 full-length (Homo sapiens, UniProt P09237).
T5 sequence (P09237 95-267): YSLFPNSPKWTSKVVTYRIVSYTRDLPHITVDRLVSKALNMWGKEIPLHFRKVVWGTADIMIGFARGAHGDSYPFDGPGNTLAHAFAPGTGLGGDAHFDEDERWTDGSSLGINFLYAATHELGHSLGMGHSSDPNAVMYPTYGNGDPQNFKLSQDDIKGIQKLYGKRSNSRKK
Kind of data set: MMP-7 full-length inhibition (thiopeptolide substrate hydrolysis). In kind it is biochemical.
Source text: as §1, §2, §5, §6

In the next data set the target is T6, MMP-12 catalytic domain (Homo sapiens, UniProt P39900).
T6 construct: MMP-12 catalytic domain, MMP-14 catalytic domain, and MMP-17 catalytic domain
T6 sequence (P39900 106-263 limits assumed): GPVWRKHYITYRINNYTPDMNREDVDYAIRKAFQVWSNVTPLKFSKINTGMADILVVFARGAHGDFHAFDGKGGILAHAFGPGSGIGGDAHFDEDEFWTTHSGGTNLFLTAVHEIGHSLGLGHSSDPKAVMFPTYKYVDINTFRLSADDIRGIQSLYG
Kind of data set: MMP-12 catalytic domain inhibition (thiopeptolide substrate hydrolysis). To be noted: read-out: MMP-12CD IC50. The data set is classed as biochemical.
Source text: as §1, §2
Thiopeptolide substrates show virtually no decomposition or hydrolysis at or below neutral pH in the absence of a matrix metalloproteinase enzyme. A typical thiopeptolide substrate commonly utilized for assays is Ac-Pro-Leu-Gly-thioester-Leu-Leu-Gly-OEt. A 100 μL assay mixture will contain 50 mM of N-2-hydroxyethylpiperazine-N′-2-ethanesulfonic acid buffer (“HEPES,” pH 7.0), 10 mM CaCl2, 100 μM thiopeptolide substrate, and 1 mM 5,5′-dithio-bis-(2-nitro-benzoic acid) (DTNB). The thiopeptolide substrate concentration may be varied, for example from 10 to 800 μM to obtain Km and Kcat values. The change in absorbance at 405 nm is monitored on a Thermo Max microplate reader (molecular Devices, Menlo Park, Calif.) at room temperature (22° C.). […]

Broadly, the IC50 is the concentration that gives 50% inhibition. `O=C(O)c1ccc(Cc2nnc(-c3cccc(C#CCc4ccc(F)cc4)c3)s2)cc1` [Example C2, 4-(5-{3-[3-(4-Fluoro-phenyl)-prop-1-ynyl]-phenyl}-[1,3,4]thiadiazol-2-ylmethyl)-benzoic acid]: the IC50 was > 100 µM on MMP-17 catalytic domain; > 100 µM at MMP-8 full-length; > 30 µM on MMP-1 full-length; > 30 µM on MMP-9 full-length; 27 µM on MMP-14 catalytic domain; 100 µM on MMP-3 catalytic domain. Besides, the IC50 on MMP-13 catalytic domain turned out to be 0.0011 µM; against MMP-7 full-length it was 7.9 µM.

As usually defined, the melting point is the temperature, or range, at which the solid turns liquid. As for `O=C(O)c1ccc(Cn2nnc(-c3cccc(C#CCc4ccc(F)cc4)c3)n2)cc1` [Example C4, 4-(5-{3-[3-(4-Fluoro-phenyl)-prop-1-ynyl]-phenyl}-tetrazol-2-ylmethyl)-benzoic acid], the melting point lay in the range of 210 to 212 °C. The IC50 on MMP-17 catalytic domain was 30 µM. Further, on MMP-8 full-length, the half-maximal inhibitory concentration (IC50) was > 100 µM. In addition, the IC50 on MMP-9 full-length is > 100 µM. Further, the IC50 on MMP-14 catalytic domain was > 30 µM. Moreover, the IC50 at MMP-12 catalytic domain is 18 µM. In addition, the IC50 on MMP-3 catalytic domain is 4.7 µM. At MMP-13 catalytic domain, the IC50 turned out to be 0.0015 µM.

`O=C(O)c1ccc(Cn2nnc(-c3ccnc(C(=O)NCc4ccc(F)cc4)c3)n2)cc1` [Example F12, 4-{5-[2-(4-Fluoro-benzylcarbamoyl)-pyridin-4-yl]-tetrazol-2-ylmethyl}-benzoic acid] came in with a melting point of 193 to 194 °C. Further, the half-maximal inhibitory concentration (IC50) at MMP-8 full-length is > 100 µM. For the same molecule, the IC50 at MMP-1 full-length was > 100 µM. Further, the IC50 at MMP-9 full-length was > 100 µM. Moreover, the IC50 at MMP-14 catalytic domain was > 100 µM. Besides, the IC50 on MMP-3 catalytic domain is 100 µM. Moreover, the IC50 at MMP-13 catalytic domain amounted to 0.0017 µM. In addition, the half-inhibitory concentration (IC50) against MMP-7 full-length is > 100 µM.

For the molecule `COc1ccc(CC#Cc2cncc(-c3nnn(Cc4ccc(C(=O)O)cc4)n3)c2)cc1` [Example H4, 4-(5-{5-[3-(4-Methoxy-phenyl)-prop-1-ynyl]-pyridin-3-yl}-tetrazol-2-ylmethyl)-benzoic acid], the IC50 is > 100 µM on MMP-17 catalytic domain; > 100 µM on MMP-8 full-length; > 100 µM on MMP-1 full-length; > 30 µM on MMP-9 full-length; > 30 µM on MMP-14 catalytic domain; 4.3 µM at MMP-3 catalytic domain. Besides, the IC50 at MMP-13 catalytic domain was 0.0027 µM; at MMP-7 full-length, > 30 µM.
